Publication PMC7935131 (Blood cancer discovery, 2020)

Legend:
[1] = test system: α-KG-dependent histone dioxygenases (H3K4 methylation); assay: Histone H3K4 methylation in treated cells; type: cell-based
[2] = test system: TET2^MT cells; assay: In vitro toxicity to TET2^MT cells; type: cell-based

Row | SMILES | Change in H3K4 methylation [1] | LD50 for TET2^MT [2]
1 | COC(=O)CNC(=O)C(=O)OC [DMOG, methyl 2-[(2-methoxy-2-oxoethyl)amino]-2-oxoacetate] | significantly affected | 
2 | O=C(O)CCC(O)C(=O)O (centres unmarked) [2HG, 2-hydroxyglutarate] |  | in millimolar ranges
